Reference: US9840513B2 (AbbVie S.à.r.l., priority 2015, dated 2017)

Biological target: T1, F508delCFTR cell surface expression in CFBE41o-F508delCFTR-HRP cells (Homo sapiens, UniProt P13569, DEL508-508)
T1 construct: fused on or other part: Horseradish peroxidase (HRP) reporter inserted in the fourth exofacial (extracellular) loop of CFTR; expression is doxycycline-inducible
Test: Cell Surface Expression-Horse Radish Peroxidase (CSE-HRP) Assay
Assay type: cell-based
Conditions: for EC50: CFBE41o-F508delCFTR-HRP cells, 18-24 hours at 33° C., 8-point curve, highest concentration 20 μM; for Maximum % activity (%): maximum at any tested concentration, normalized to on-plate positive control (3 μM)
How it was run: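 Correctors incubated 18-24 h at 33 °C on doxycycline-induced (0.5 μg/mL, 72 h) CFBE41o-F508delCFTR-HRP cells, 3-fold series from 20 μM. After DPBS washes, luminol luminescence read; activity expressed relative to DMSO and a 3 μM positive control, EC50 fitted from triplicate plates.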

T1 sequence (P13569 with tags, fused parts or gaps DEL508-508 limits assumed): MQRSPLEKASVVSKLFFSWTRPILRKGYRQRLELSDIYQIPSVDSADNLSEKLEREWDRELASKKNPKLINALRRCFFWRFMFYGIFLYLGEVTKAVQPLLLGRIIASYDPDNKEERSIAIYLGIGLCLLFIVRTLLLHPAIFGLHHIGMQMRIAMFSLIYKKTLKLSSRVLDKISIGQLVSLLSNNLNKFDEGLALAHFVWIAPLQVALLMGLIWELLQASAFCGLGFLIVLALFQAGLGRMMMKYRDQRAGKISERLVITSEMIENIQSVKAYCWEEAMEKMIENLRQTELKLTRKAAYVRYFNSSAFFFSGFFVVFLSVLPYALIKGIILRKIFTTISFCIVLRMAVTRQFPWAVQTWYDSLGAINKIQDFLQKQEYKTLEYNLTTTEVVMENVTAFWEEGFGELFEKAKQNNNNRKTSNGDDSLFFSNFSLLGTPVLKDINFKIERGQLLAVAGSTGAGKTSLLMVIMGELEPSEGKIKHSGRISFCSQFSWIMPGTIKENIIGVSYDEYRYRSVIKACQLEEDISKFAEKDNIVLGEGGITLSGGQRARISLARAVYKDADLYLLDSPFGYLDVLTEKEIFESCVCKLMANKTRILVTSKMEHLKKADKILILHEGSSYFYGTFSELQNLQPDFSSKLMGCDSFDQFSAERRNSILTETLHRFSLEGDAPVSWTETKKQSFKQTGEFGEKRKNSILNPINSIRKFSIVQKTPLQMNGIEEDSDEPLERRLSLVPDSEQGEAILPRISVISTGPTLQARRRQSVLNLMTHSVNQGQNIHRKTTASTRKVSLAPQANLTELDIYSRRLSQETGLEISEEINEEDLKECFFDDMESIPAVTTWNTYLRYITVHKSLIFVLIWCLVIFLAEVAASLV
T1 sequence (P13569 919-1480 limits assumed, stated change not applied): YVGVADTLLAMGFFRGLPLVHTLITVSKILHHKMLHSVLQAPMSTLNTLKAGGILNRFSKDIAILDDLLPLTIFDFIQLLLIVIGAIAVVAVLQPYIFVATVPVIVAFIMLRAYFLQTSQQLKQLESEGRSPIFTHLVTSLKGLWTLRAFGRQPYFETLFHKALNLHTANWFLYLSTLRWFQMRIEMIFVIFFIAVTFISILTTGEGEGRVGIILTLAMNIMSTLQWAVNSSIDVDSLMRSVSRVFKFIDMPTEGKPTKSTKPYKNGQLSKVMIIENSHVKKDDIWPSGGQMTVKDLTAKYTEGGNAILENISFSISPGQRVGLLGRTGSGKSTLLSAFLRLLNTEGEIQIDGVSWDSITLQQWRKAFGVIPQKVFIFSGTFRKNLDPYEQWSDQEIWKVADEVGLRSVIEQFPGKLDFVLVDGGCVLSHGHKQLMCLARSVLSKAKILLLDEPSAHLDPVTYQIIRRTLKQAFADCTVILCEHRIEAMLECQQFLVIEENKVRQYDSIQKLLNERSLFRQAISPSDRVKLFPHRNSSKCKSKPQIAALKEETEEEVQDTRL

| Structure (SMILES) | EC50 [nM] | Maximum % activity (%) |
| --- | --- | --- |
| CNC(=O)c1cccc(-c2nc(NC(=O)C3(C)COc4cc5c(cc43)OC(F)(F)O5)ccc2C)c1 (centres unmarked) [Example 76, 2,2-difluoro-7-methyl-N-{5-methyl-6-[3-(methylcarbamoyl)phenyl]pyridin-2-yl}-6,7-dihydro-2H-furo[2,3-f][1,3]benzodioxole-7-carboxamide] | 720 | 111 |
| Cc1ccc(NC(=O)[C@@]2(C)COc3cc4c(cc32)OC(F)(F)O4)nc1Cl [Example 77, (7R)—N-(6-chloro-5-methylpyridin-2-yl)-2,2-difluoro-7-methyl-6,7-dihydro-2H-furo[2,3-f][1,3]benzodioxole-7-carboxamide] | 6630 | 116 |
| Cc1ccc(NC(=O)[C@@]2(C)COc3cc4c(cc32)OC(F)(F)O4)nc1-c1cccc(C#N)c1 [Example 78, (7R)—N-[6-(3-cyanophenyl)-5-methylpyridin-2-yl]-2,2-difluoro-7-methyl-6,7-dihydro-2H-furo[2,3-f][1,3]benzodioxole-7-carboxamide] | 570 | 95 |
| COC(=O)c1ccc(-c2cccc(NC(=O)[C@@]3(C)COc4cc5c(cc43)OC(F)(F)O5)n2)cc1 [Example 79, methyl 4-(6-{[(7R)-2,2-difluoro-7-methyl-6,7-dihydro-2H-furo[2,3-f][1,3]benzodioxole-7-carbonyl]amino}pyridin-2-yl)benzoate] | 1180 | 151 |
| C[C@]1(C(=O)Nc2ccc(N3CCCC3)cn2)COc2cc3c(cc21)OC(F)(F)O3 [Example 80, (7R)-2,2-difluoro-7-methyl-N-[5-(pyrrolidin-1-yl)pyridin-2-yl]-6,7-dihydro-2H-furo[2,3-f][1,3]benzodioxole-7-carboxamide] | 4750 | 147 |
| C[C@]1(C(=O)Nc2cccc(-c3ccc(C(=O)O)cc3)n2)COc2cc3c(cc21)OC(F)(F)O3 [Example 81, 4-(6-{[(7R)-2,2-difluoro-7-methyl-6,7-dihydro-2H-furo[2,3-f][1,3]benzodioxole-7-carbonyl]amino}pyridin-2-yl)benzoic acid] | 1400 | 200 |
| CCOC(=O)c1csc(-c2cccc(NC(=O)[C@@]3(C)COc4cc5c(cc43)OC(F)(F)O5)n2)c1 [Example 82, ethyl 5-(6-{[(7R)-2,2-difluoro-7-methyl-6,7-dihydro-2H-furo[2,3-f][1,3]benzodioxole-7-carbonyl]amino}pyridin-2-yl)thiophene-3-carboxylate] | 3160 | 116 |
| Cc1ccc(-c2cccc(C(=O)O)c2)nc1NC(=O)[C@@]1(C)COc2cc3c(cc21)OC(F)(F)O3 [Example 84, 3-(6-{[(7R)-2,2-difluoro-7-methyl-6,7-dihydro-2H-furo[2,3-f][1,3]benzodioxole-7-carbonyl]amino}-5-methylpyridin-2-yl)benzoic acid] | 7510 | 46 |
| C[C@]1(C(=O)Nc2cccc(F)n2)COc2cc3c(cc21)OC(F)(F)O3 [Example 85, (7R)-2,2-difluoro-N-(6-fluoropyridin-2-yl)-7-methyl-6,7-dihydro-2H-furo[2,3-f][1,3]benzodioxole-7-carboxamide] | 6690 | 90 |
| C[C@]1(C(=O)Nc2cccc(-c3cc(C(=O)O)cs3)n2)COc2cc3c(cc21)OC(F)(F)O3 [Example 86, 5-(6-{[(7R)-2,2-difluoro-7-methyl-6,7-dihydro-2H-furo[2,3-f][1,3]benzodioxole-7-carbonyl]amino}pyridin-2-yl)thiophene-3-carboxylic acid] | 2840 | 112 |
| C[C@]1(C(=O)Nc2cccc(N3CCOC(CO)C3)n2)COc2cc3c(cc21)OC(F)(F)O3 (stereo partly drawn) [Example 87, (7R)-2,2-difluoro-N-{6-[2-(hydroxymethyl)morpholin-4-yl]pyridin-2-yl}-7-methyl-6,7-dihydro-2H-furo[2,3-f][1,3]benzodioxole-7-carboxamide] | 1860 | 100 |
| C[C@]1(C(=O)Nc2cccc(N3CC[C@H](O)C3)n2)COc2cc3c(cc21)OC(F)(F)O3 [Example 88, (7R)-2,2-difluoro-N-{6-[(3S)-3-hydroxypyrrolidin-1-yl]pyridin-2-yl}-7-methyl-6,7-dihydro-2H-furo[2,3-f][1,3]benzodioxole-7-carboxamide] | 730 | 113 |

More lines, now with the values ahead:

| EC50 [nM] | Maximum % activity (%) | Structure (SMILES) |
| --- | --- | --- |
| 18 | 116 | COC(=O)c1ccc([C@H]2C[C@@H](NC(=O)[C@@]3(C)COc4cc5c(cc43)OC(F)(F)O5)c3ccc(OC)cc3O2)nc1 [Example 89E, methyl 6-[(2R,4R)-4-{[(7R)-2,2-difluoro-7-methyl-6,7-dihydro-2H-furo[2,3-f][1,3]benzodioxole-7-carbonyl]amino}-7-methoxy-3,4-dihydro-2H-1-benzopyran-2-yl]pyridine-3-carboxylate] |
| 210 | 116 | C[C@]1(C(=O)Nc2cccc(N3CC[C@@H](O)C3)n2)COc2cc3c(cc21)OC(F)(F)O3 [Example 91, (7R)-2,2-difluoro-N-{6-[(3R)-3-hydroxypyrrolidin-1-yl]pyridin-2-yl}-7-methyl-6,7-dihydro-2H-furo[2,3-f][1,3]benzodioxole-7-carboxamide] |
| 1530 | 89 | C[C@]1(C(=O)Nc2cccc(NC[C@H](O)CO)n2)COc2cc3c(cc21)OC(F)(F)O3 [Example 93, (7R)—N-(6-{[(2S)-2,3-dihydroxypropyl]amino}pyridin-2-yl)-2,2-difluoro-7-methyl-6,7-dihydro-2H-furo[2,3-f][1,3]benzodioxole-7-carboxamide] |
| > 20000 | 8 | C[C@]1(C(=O)Nc2cnc(N3CCC(C(=O)O)C3)cn2)COc2cc3c(cc21)OC(F)(F)O3 (stereo partly drawn) [Example 94, 1-(5-{[(7R)-2,2-difluoro-7-methyl-6,7-dihydro-2H-furo[2,3-f][1,3]benzodioxole-7-carbonyl]amino}pyrazin-2-yl)pyrrolidine-3-carboxylic acid] |
| 1310 | 139 | CC1(C(=O)O)CN(c2cccc(NC(=O)[C@@]3(C)COc4cc5c(cc43)OC(F)(F)O5)n2)C1 [Example 96, 1-(6-{[(7R)-2,2-difluoro-7-methyl-6,7-dihydro-2H-furo[2,3-f][1,3]benzodioxole-7-carbonyl]amino}pyridin-2-yl)-3-methylazetidine-3-carboxylic acid] |
| 480 | 148 | C[C@]1(C(=O)Nc2cc(Br)cn(-c3ccc(C(=O)O)cc3)c2=O)COc2cc3c(cc21)OC(F)(F)O3 [Example 97, 4-[5-bromo-3-{[(7R)-2,2-difluoro-7-methyl-6,7-dihydro-2H-furo[2,3-f][1,3]benzodioxole-7-carbonyl]amino}-2-oxopyridin-1(2H)-yl]benzoic acid] |
| 1140 | 143 | C[C@]1(C(=O)Nc2cc(Br)cn(C[C@@H](O)CO)c2=O)COc2cc3c(cc21)OC(F)(F)O3 [Example 98, (7R)—N-{5-bromo-1-[(2R)-2,3-dihydroxypropyl]-2-oxo-1,2-dihydropyridin-3-yl}-2,2-difluoro-7-methyl-6,7-dihydro-2H-furo[2,3-f][1,3]benzodioxole-7-carboxamide] |
| 230 | 71 | C[C@]1(C(=O)Nc2cc(-c3ccccc3)cn(-c3ccc(C(=O)O)cc3)c2=O)COc2cc3c(cc21)OC(F)(F)O3 [Example 99, 4-[3-{[(7R)-2,2-difluoro-7-methyl-6,7-dihydro-2H-furo[2,3-f][1,3]benzodioxole-7-carbonyl]amino}-2-oxo-5-phenylpyridin-1(2H)-yl]benzoic acid] |
| 450 | 85 | C[C@]1(C(=O)Nc2cc(-c3ccccc3)cn(C[C@@H](O)CO)c2=O)COc2cc3c(cc21)OC(F)(F)O3 [Example 100, (7R)—N-{1-[(2R)-2,3-dihydroxypropyl]-2-oxo-5-phenyl-1,2-dihydropyridin-3-yl}-2,2-difluoro-7-methyl-6,7-dihydro-2H-furo[2,3-f][1,3]benzodioxole-7-carboxamide] |
| 870 | 116 | CC1(C)CCN(c2cccc(NC(=O)[C@@]3(C)COc4cc5c(cc43)OC(F)(F)O5)n2)C1 [Example 101, (7R)—N-[6-(3,3-dimethylpyrrolidin-1-yl)pyridin-2-yl]-2,2-difluoro-7-methyl-6,7-dihydro-2H-furo[2,3-f][1,3]benzodioxole-7-carboxamide] |
| 8290 | 61 | C[C@]1(C(=O)Nc2cnc(N3CCC[C@H]3C(=O)O)cn2)COc2cc3c(cc21)OC(F)(F)O3 [Example 102, 1-(5-{[(7R)-2,2-difluoro-7-methyl-6,7-dihydro-2H-furo[2,3-f][1,3]benzodioxole-7-carbonyl]amino}pyrazin-2-yl)proline] |
| 1720 | 170 | Cc1cc(NC(=O)[C@@]2(C)COc3cc4c(cc32)OC(F)(F)O4)nc(-c2cccc(C(=O)O)c2)c1 [Example 103, 3-(6-{[(7R)-2,2-difluoro-7-methyl-6,7-dihydro-2H-furo[2,3-f][1,3]benzodioxole-7-carbonyl]amino}-4-methylpyridin-2-yl)benzoic acid] |
| > 20000 | 16 | CC1(C)OC[C@H]([C@@H](O)Cn2nc(-c3ccccc3)cc(NC(=O)[C@@]3(C)COc4cc5c(cc43)OC(F)(F)O5)c2=O)O1 [Example 104, (7R)—N-(2-{(2S)-2-[(4R)-2,2-dimethyl-1,3-dioxolan-4-yl]-2-hydroxyethyl}-3-oxo-6-phenyl-2,3-dihydropyridazin-4-yl)-2,2-difluoro-7-methyl-6,7-dihydro-2H-furo[2,3-f][1,3]benzodioxole-7-carboxamide] |
